According to patent US20170368082A1, “FORMULATIONS OF BRINCIDOFOVIR” (priority 2016, published 2017):
Like-named read-outs stand apart in the source and are kept apart here.

Tests used:
[1] = Stability study I (with dextrose): accelerated stability study; type: physicochemical
Method: Testing of the chemical degradation was performed in an accelerated stability study setup applying heat as an accelerator/stressor. An Arrhenius analysis was carried out providing an API half-life and a degradation rate at lower temperatures. Physical stability was evaluated at the desired storage temperature (2-8° C.); a benchmark/reference condition was likewise included in the study. The setup of the study is specified below:
Accelerated stability study: 50° C., 60° C., 65° C., 70° C., 75° C.,
Accelerated stability study: initial, 2, 6, 9, 14 days,
appearance, pH, c(BCV) recovery (HPLC), purity (HPLC), and liquid particle counting (physical degradation and benchmark stability study),
The stability testing results (accelerated conditions), i.e., the changes of pH and trends of brincidofovir recovery over the course of the stability study are summarized in Table 8 and Table 9 for the formulations at 10 mg/mL and 15 mg/mL respectively.

[2] = cited from earlier work
[3] = Sterilization filter compatibility; type: physicochemical
Method: Formulations of the disclosure were evaluated for sterilization filter compatibility. Aliquots of a testing brincidofovir formulation were filtered through the corresponding syringe filters as follows:
A: Filter: 0.2 μm, 25 mm, syringe filter, Supor® membrane (PES), sterile; testing solution: 10 mg/mL brincidofovir, 200 mM sodium phosphate, pH=8.0; testing volume: 10 mL. B: Filter: 0.2 μm, 25 mm, syringe filter, Posidyne® membrane, sterile; testing solution: 10 mg/mL brincidofovir, 200 mM sodium phosphate, pH=8.0; testing volume: 10 mL. C: Filter: 0.22 μm, 33 mm, syringe filter, Durapore® PVDF membrane, γ-irradiated; testing solution: […] brincidofovir, 4 mM sodium phosphate, pH-8, approx. 5% dextrose (50× dilution of 10 mg/mL brincidofovir, 200 mM sodium phosphate, pH=8.0 with 5% dextrose solution; testing volume: 50 mL.
The first and last 10% of the filtrate were collected. Samples of the collected filtrates, along with samples of the pre filtration formulation, were assessed for their appearance, pH, and c(BCV).

[4] = Clinical infusion system compatibility; type: physicochemical
Method: The testing procedure can be summarized as follows: • 1. […] The tested infusion system was attached to the infusion bag and manually filled with solution from the infusion bag. Approximately 1 mL (triplicates) of the testing solution was collected as an end-of-line sample for analysis (t0, eol). • 4. The testing infusion system was shut off, and stored at ambient conditions until the next time point. […] B Braun, Rate Flow® regulator IV set). […] The infusion systems were then attached to the infusion bag and manually filled with solution from the infusion bag. Aliquots were collected as an end-of-line sample for analysis (t0, eol). The IV lines were closed between time points with the infusate resting within the infusion system and stored at ambient temperature. At testing time points, approximately 17 mL (approx. volume of the IV system) of infusate solution were drained, which led to a replacement of the solution in the IV system from the bag reservoir. Following this replacement, another end-of-line sample was collected for the assessments (t10 min, eol, t3 h, eol, and t6 h, eol). The samples were evaluated for appearance, pH, and brincidofovir recovery.

[5] = PES filter membrane, first 10% filtrate volume
[6] = PES filter membrane, last 10% filtrate volume
[7] = PES filter membrane, pre filtration
[8] = PVDF filter membrane, first 10% filtrate volume
[9] = PVDF filter membrane, last 10% filtrate volume
[10] = PVDF filter membrane, pre filtration
[11] = Posidyne filter membrane, first 10% filtrate volume
[12] = Posidyne filter membrane, last 10% filtrate volume
[13] = Posidyne filter membrane, pre filtration
[14] = B. Braun, 0.1 mg/mL, t10 min, eol
[15] = B. Braun, 1.0 mg/mL, t10 min, eol
[16] = Baxter, 0.1 mg/mL, t10 min, eol
[17] = Baxter, 1.0 mg/mL, t10 min, eol

CCCCCCCCCCCCCCCCOCCCOP(=O)(O)CO[C@H](CO)Cn1ccc(N)nc1=O [Brincidofovir]
Degradation of brincidofovir over two weeks ([1]; 50 °C): 16%
Degradation of brincidofovir over two weeks ([1]; 75 °C): 22%
Impurities ([1]; 75 °C station, both starting concentrations): up to 16%
Instance of diarrhea ([2]; single oral dose 100 mg and 200 mg): about 5%
Instance of diarrhea ([2]; single oral dose 350 mg): about 20%
Appearance [3, 5]: Clear,
Measured pH [3, 5]: 8.0
Observed c(BCV) [3, 5]: 9.8 mg/mL
Appearance [3, 6]: Clear,
Measured pH [3, 6]: 8.0
Observed c(BCV) [3, 6]: 9.8 mg/mL
Appearance [3, 7]: Clear,
Measured pH [3, 7]: 8.1
Observed c(BCV) [3, 7]: 9.9 mg/mL
Appearance [3, 8]: Clear,
Measured pH [3, 8]: 8.1
Observed c(BCV) [3, 8]: 0.20 mg/mL
Appearance [3, 9]: Clear,
Measured pH [3, 9]: 8.1
Observed c(BCV) [3, 9]: 0.20 mg/mL
Appearance [3, 10]: Clear,
Measured pH [3, 10]: 8.0
Observed c(BCV) [3, 10]: 0.20 mg/mL
Appearance [3, 11]: Clear,
Measured pH [3, 11]: 8.0
Observed c(BCV) [3, 11]: 9.7 mg/mL
Appearance [3, 12]: Clear,
Measured pH [3, 12]: 8.0
Observed c(BCV) [3, 12]: 9.8 mg/mL
Appearance [3, 13]: Clear,
Measured pH [3, 13]: 8.1
Observed c(BCV) [3, 13]: 9.9 mg/mL
Appearance ([4]; B. Braun, 0.1 mg/mL, t0, bag): Clear, colorless
Measured pH ([4]; B. Braun, 0.1 mg/mL, t0, bag): 7.8
Observed c(BCV) ([4]; B. Braun, 0.1 mg/mL, t0, bag): 0.091 mg/mL
Appearance ([4]; B. Braun, 0.1 mg/mL, t0, eol): Clear, colorless
Measured pH ([4]; B. Braun, 0.1 mg/mL, t0, eol): 7.7
Observed c(BCV) ([4]; B. Braun, 0.1 mg/mL, t0, eol): 0.086 mg/mL
Appearance [4, 14]: Clear, colorless
Measured pH [4, 14]: 7.7
Observed c(BCV) [4, 14]: 0.091 mg/mL
Appearance ([4]; B. Braun, 0.1 mg/mL, t3 h, eol): Clear, colorless
Measured pH ([4]; B. Braun, 0.1 mg/mL, t3 h, eol): 7.7
Observed c(BCV) ([4]; B. Braun, 0.1 mg/mL, t3 h, eol): 0.090 mg/mL
Appearance ([4]; B. Braun, 0.1 mg/mL, t6 h, eol): Clear, colorless
Measured pH ([4]; B. Braun, 0.1 mg/mL, t6 h, eol): 7.7
Observed c(BCV) ([4]; B. Braun, 0.1 mg/mL, t6 h, eol): 0.091 mg/mL
Observed c(BCV) ([4]; B. Braun, 0.1 mg/mL, t−24 h, bag): 0.090 mg/mL
Appearance ([4]; B. Braun, 1.0 mg/mL, t0, bag): Clear, colorless
Measured pH ([4]; B. Braun, 1.0 mg/mL, t0, bag): 8.1
Observed c(BCV) ([4]; B. Braun, 1.0 mg/mL, t0, bag): 0.86 mg/mL
Appearance ([4]; B. Braun, 1.0 mg/mL, t0, eol): Clear, colorless
Measured pH ([4]; B. Braun, 1.0 mg/mL, t0, eol): 8.1
Observed c(BCV) ([4]; B. Braun, 1.0 mg/mL, t0, eol): 0.86 mg/mL
Appearance [4, 15]: Clear, colorless
Measured pH [4, 15]: 8.1
Observed c(BCV) [4, 15]: 0.86 mg/mL
Appearance ([4]; B. Braun, 1.0 mg/mL, t3 h, eol): Clear, colorless
Measured pH ([4]; B. Braun, 1.0 mg/mL, t3 h, eol): 8.1
Observed c(BCV) ([4]; B. Braun, 1.0 mg/mL, t3 h, eol): 0.86 mg/mL
Appearance ([4]; B. Braun, 1.0 mg/mL, t6 h, eol): Clear, colorless
Measured pH ([4]; B. Braun, 1.0 mg/mL, t6 h, eol): 8.1
Observed c(BCV) ([4]; B. Braun, 1.0 mg/mL, t6 h, eol): 0.86 mg/mL
Observed c(BCV) ([4]; B. Braun, 1.0 mg/mL, t−24 h, bag): 0.86 mg/mL
Appearance ([4]; Baxter, 0.1 mg/mL, t0, bag): Clear, colorless
Measured pH ([4]; Baxter, 0.1 mg/mL, t0, bag): 7.7
Observed c(BCV) ([4]; Baxter, 0.1 mg/mL, t0, bag): 0.091 mg/mL
Appearance ([4]; Baxter, 0.1 mg/mL, t0, eol): Clear, colorless
Measured pH ([4]; Baxter, 0.1 mg/mL, t0, eol): 7.7
Observed c(BCV) ([4]; Baxter, 0.1 mg/mL, t0, eol): 0.088 mg/mL
Appearance [4, 16]: Clear, colorless
Measured pH [4, 16]: 7.7
Observed c(BCV) [4, 16]: 0.092 mg/mL
Appearance ([4]; Baxter, 0.1 mg/mL, t3 h, eol): Clear, colorless
Measured pH ([4]; Baxter, 0.1 mg/mL, t3 h, eol): 7.7
Observed c(BCV) ([4]; Baxter, 0.1 mg/mL, t3 h, eol): 0.091 mg/mL
Appearance ([4]; Baxter, 0.1 mg/mL, t6 h, eol): Clear, colorless
Measured pH ([4]; Baxter, 0.1 mg/mL, t6 h, eol): 7.7
Observed c(BCV) ([4]; Baxter, 0.1 mg/mL, t6 h, eol): 0.092 mg/mL
Observed c(BCV) ([4]; Baxter, 0.1 mg/mL, t−24 h, bag): 0.090 mg/mL
Appearance ([4]; Baxter, 1.0 mg/mL, t0, bag): Clear, colorless
Measured pH ([4]; Baxter, 1.0 mg/mL, t0, bag): 8.1
Observed c(BCV) ([4]; Baxter, 1.0 mg/mL, t0, bag): 0.86 mg/mL
Appearance ([4]; Baxter, 1.0 mg/mL, t0, eol): Clear, colorless
Measured pH ([4]; Baxter, 1.0 mg/mL, t0, eol): 8.1
Observed c(BCV) ([4]; Baxter, 1.0 mg/mL, t0, eol): 0.85 mg/mL
Appearance [4, 17]: Clear, colorless
Measured pH [4, 17]: 8.1
Observed c(BCV) [4, 17]: 0.86 mg/mL
Appearance ([4]; Baxter, 1.0 mg/mL, t3 h, eol): Clear, colorless
Measured pH ([4]; Baxter, 1.0 mg/mL, t3 h, eol): 8.1
Observed c(BCV) ([4]; Baxter, 1.0 mg/mL, t3 h, eol): 0.86 mg/mL
Appearance ([4]; Baxter, 1.0 mg/mL, t6 h, eol): Clear, colorless
Measured pH ([4]; Baxter, 1.0 mg/mL, t6 h, eol): 8.1
Observed c(BCV) ([4]; Baxter, 1.0 mg/mL, t6 h, eol): 0.86 mg/mL
Observed c(BCV) ([4]; Baxter, 1.0 mg/mL, t−24 h, bag): 0.85 mg/mL
